Species: Rattus norvegicus
Test: DrugMatrix - Regimen: Daily Repeat
Assay type: toxicity, organism-based, Sprague-Dawley
Set-up: regimen Daily Repeat, gender Male, age 6-8 weeks
Conditions: in vivo, po, route oral GAVAGE, […]; for ABSOLUTE BASOPHIL / ABSOLUTE EOSINOPHIL / ABSOLUTE LYMPHOCYTE / ABSOLUTE MONOCYTE / ABSOLUTE SEGMENTED NEUTROPHIL / BASOPHIL / EOSINOPHIL / ERYTHROCYTE COUNT / HEMATOCRIT / HEMOGLOBIN / LEUKOCYTE COUNT / LYMPHOCYTE / MEAN CORPUSCULAR HEMOGLOBIN / MEAN CORPUSCULAR HEMOGLOBIN CONCENTRATION / MEAN CORPUSCULAR VOLUME / MONOCYTE / NEUTROPHIL / NUCLEATED RED BLOOD CELLS / PLATELET COUNT: tissue Blood; for ALANINE AMINOTRANSFERASE / ALBUMIN / ALKALINE PHOSPHATASE / ASPARTATE AMINOTRANSFERASE / BLOOD UREA NITROGEN / CARBON DIOXIDE / CHLORIDE / CHOLESTEROL / CREATINE PHOSPHOKINASE / CREATININE / GLUCOSE / LACTATE DEHYDROGENASE / LIPASE / PHOSPHORUS / POTASSIUM / SODIUM / TOTAL BILIRUBIN / TOTAL PROTEIN / URIC ACID: tissue Plasma
[1] = 100 mg/kg, 120 h, dose level Low, time 5 day
[2] = 448 mg/kg, 72 h, dose level High, time 3 day
[3] = 448 mg/kg, 120 h, dose level High, time 5 day

CC(C)(Oc1ccc(Cl)cc1)C(=O)O [CLOFIBRIC ACID]
ABSOLUTE BASOPHIL [1]: 0 CELLS/uL | ABSOLUTE EOSINOPHIL [1]: 54.67 CELLS/uL | ABSOLUTE LYMPHOCYTE [1]: 12665.33 CELLS/uL | ABSOLUTE MONOCYTE [1]: 34.33 CELLS/uL | ABSOLUTE SEGMENTED NEUTROPHIL [1]: 1712.33 CELLS/uL | BASOPHIL [1]: 0% | EOSINOPHIL [1]: 0.33% | ERYTHROCYTE COUNT [1]: 5.75 x10E6/uL | HEMATOCRIT [1]: 35.5% | HEMOGLOBIN [1]: 14.03 G/DL | LEUKOCYTE COUNT [1]: 14.47 x10E3/uL | LYMPHOCYTE [1]: 87% | MEAN CORPUSCULAR HEMOGLOBIN [1]: 24.43 pg | MEAN CORPUSCULAR HEMOGLOBIN CONCENTRATION [1]: 39.53 G/DL | MEAN CORPUSCULAR VOLUME [1]: 61.77 fL | MONOCYTE [1]: 0.33% | NEUTROPHIL [1]: 12.33% | NUCLEATED RED BLOOD CELLS [1]: 0.33 /100WBC | PLATELET COUNT [1]: 1147.33 x10E3/uL | ALANINE AMINOTRANSFERASE [1]: 63.67 u/L | ALBUMIN [1]: 4.37 G/DL | ALKALINE PHOSPHATASE [1]: 342 u/L | ASPARTATE AMINOTRANSFERASE [1]: 93.33 u/L | BLOOD UREA NITROGEN [1]: 15 mg/dL | CARBON DIOXIDE [1]: 28 mmol/L | CHLORIDE [1]: 101.33 MEQ/L | CHOLESTEROL [1]: 50.67 mg/dL | CREATINE PHOSPHOKINASE [1]: 370.33 u/L | CREATININE [1]: 0.2 mg/dL | GLUCOSE [1]: 145.33 mg/dL | LACTATE DEHYDROGENASE [1]: 275.67 u/L | LIPASE [1]: 9.67 u/L | PHOSPHORUS [1]: 11.03 mg/dL | POTASSIUM [1]: 5.96 MEQ/L | SODIUM [1]: 142.3 MEQ/L | TOTAL BILIRUBIN [1]: 0.2 mg/dL | TOTAL PROTEIN [1]: 5.73 G/DL | URIC ACID [1]: 1.23 mg/dL | ABSOLUTE BASOPHIL [2]: 0 CELLS/uL | ABSOLUTE EOSINOPHIL [2]: 0 CELLS/uL | ABSOLUTE LYMPHOCYTE [2]: 10222.33 CELLS/uL | ABSOLUTE MONOCYTE [2]: 204.67 CELLS/uL | ABSOLUTE SEGMENTED NEUTROPHIL [2]: 1606.33 CELLS/uL | BASOPHIL [2]: 0% | EOSINOPHIL [2]: 0% | ERYTHROCYTE COUNT [2]: 5.53 x10E6/uL | HEMATOCRIT [2]: 33.9% | HEMOGLOBIN [2]: 13.1 G/DL | LEUKOCYTE COUNT [2]: 12.03 x10E3/uL | LYMPHOCYTE [2]: 85% | MEAN CORPUSCULAR HEMOGLOBIN [2]: 23.73 pg | MEAN CORPUSCULAR HEMOGLOBIN CONCENTRATION [2]: 38.63 G/DL | MEAN CORPUSCULAR VOLUME [2]: 61.37 fL | MONOCYTE [2]: 1.67% | NEUTROPHIL [2]: 13.33% | NUCLEATED RED BLOOD CELLS [2]: 0 /100WBC | PLATELET COUNT [2]: 1067.33 x10E3/uL | ALANINE AMINOTRANSFERASE [2]: 82.33 u/L | ALBUMIN [2]: 4.4 G/DL | ALKALINE PHOSPHATASE [2]: 525.33 u/L | ASPARTATE AMINOTRANSFERASE [2]: 118.33 u/L | BLOOD UREA NITROGEN [2]: 13.33 mg/dL | CARBON DIOXIDE [2]: 33 mmol/L | CHLORIDE [2]: 98.33 MEQ/L | CHOLESTEROL [2]: 39 mg/dL | CREATINE PHOSPHOKINASE [2]: 203.67 u/L | CREATININE [2]: 0.14 mg/dL | GLUCOSE [2]: 149.33 mg/dL | LACTATE DEHYDROGENASE [2]: 172.67 u/L | LIPASE [2]: 8 u/L | PHOSPHORUS [2]: 11.27 mg/dL | POTASSIUM [2]: 6.66 MEQ/L | SODIUM [2]: 140.57 MEQ/L | TOTAL BILIRUBIN [2]: 0.17 mg/dL | TOTAL PROTEIN [2]: 5.33 G/DL | URIC ACID [2]: 1.37 mg/dL | ABSOLUTE BASOPHIL [3]: 0 CELLS/uL | ABSOLUTE EOSINOPHIL [3]: 0 CELLS/uL | ABSOLUTE LYMPHOCYTE [3]: 14966.67 CELLS/uL | ABSOLUTE MONOCYTE [3]: 437.33 CELLS/uL | ABSOLUTE SEGMENTED NEUTROPHIL [3]: 2729.33 CELLS/uL | BASOPHIL [3]: 0% | EOSINOPHIL [3]: 0% | ERYTHROCYTE COUNT [3]: 5.64 x10E6/uL | HEMATOCRIT [3]: 35.03% | HEMOGLOBIN [3]: 13.4 G/DL | LEUKOCYTE COUNT [3]: 18.13 x10E3/uL | LYMPHOCYTE [3]: 82.67% | MEAN CORPUSCULAR HEMOGLOBIN [3]: 23.77 pg | MEAN CORPUSCULAR HEMOGLOBIN CONCENTRATION [3]: 38.27 G/DL | MEAN CORPUSCULAR VOLUME [3]: 62.17 fL | MONOCYTE [3]: 2.33% | NEUTROPHIL [3]: 15% | NUCLEATED RED BLOOD CELLS [3]: 0 /100WBC | PLATELET COUNT [3]: 1012.67 x10E3/uL | ALANINE AMINOTRANSFERASE [3]: 61 u/L | ALBUMIN [3]: 4.6 G/DL | ALKALINE PHOSPHATASE [3]: 409.33 u/L | ASPARTATE AMINOTRANSFERASE [3]: 90.67 u/L | BLOOD UREA NITROGEN [3]: 17.33 mg/dL | CARBON DIOXIDE [3]: 28.33 mmol/L | CHLORIDE [3]: 106.67 MEQ/L | CHOLESTEROL [3]: 46.33 mg/dL | CREATINE PHOSPHOKINASE [3]: 195.67 u/L | CREATININE [3]: 0.19 mg/dL | GLUCOSE [3]: 158 mg/dL | LACTATE DEHYDROGENASE [3]: 194.33 u/L | LIPASE [3]: 9.33 u/L | PHOSPHORUS [3]: 9.7 mg/dL | POTASSIUM [3]: 6.4 MEQ/L | SODIUM [3]: 149.4 MEQ/L | TOTAL BILIRUBIN [3]: 0.1 mg/dL | TOTAL PROTEIN [3]: 5.63 G/DL | URIC ACID [3]: 1.5 mg/dL
